Reference: patent US8883782B2, “Spiro-tetracyclic ring compounds as beta-secretase modulators and methods of use” (Amgen Inc., priority 2010, dated 2014)
Read-outs that look alike come from different tables or passages of the source.

Tests used:
[1] = test system: Aβ40 in conditioned medium of cells stably expressing Amyloid Precursor Protein (APP); experiment: In vitro BACE cell-based assay (Aβ40 in conditioned medium, sandwich ELISA)
Method in brief: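 Step two: 10-point compound titration added, starting 100 μM or 10 μM, 0.1% DMSO. Step three: medium Aβ40 measured by ELISA, capture 3 h and detection 2 h at 4° C, TRF read.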

[2] = molecular target: Beta Secretase enzyme (BACE) (Homo sapiens, UniProt P56817); experiment: In vitro enzymatic BACE FRET (fluorescence resonance energy transfer) assay; type: biochemical
Method in brief: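 Cleavage of a 50 nM fluorophore/quencher peptide FRET substrate by BACE for 1 h in 0.05 M acetate pH 4.2, 10% DMSO, 100 uM genapol. Reaction stopped with Tris to neutral pH before fluorescence reading.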

[3] = Homo sapiens, HEK293, average IC50, HEK cells, read-out: HEK cell assay
[4] = average IC50, enzyme assay, read-out: BACE 1 FRET assay

Sequence of Beta Secretase enzyme (BACE) (P56817 46-501, species assumed): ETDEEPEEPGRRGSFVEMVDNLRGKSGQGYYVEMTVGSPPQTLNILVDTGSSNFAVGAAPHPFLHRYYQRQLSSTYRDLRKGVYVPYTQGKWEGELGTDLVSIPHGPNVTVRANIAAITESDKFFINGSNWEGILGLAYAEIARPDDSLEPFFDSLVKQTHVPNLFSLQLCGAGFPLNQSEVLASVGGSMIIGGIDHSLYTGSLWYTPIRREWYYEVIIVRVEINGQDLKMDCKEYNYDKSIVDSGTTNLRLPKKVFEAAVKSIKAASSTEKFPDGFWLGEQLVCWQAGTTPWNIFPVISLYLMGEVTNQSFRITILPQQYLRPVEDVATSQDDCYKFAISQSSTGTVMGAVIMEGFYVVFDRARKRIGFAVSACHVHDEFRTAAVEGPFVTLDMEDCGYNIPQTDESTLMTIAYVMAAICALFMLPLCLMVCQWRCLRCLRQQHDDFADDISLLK

| Compound | IC50 [1, 3] | IC50 [2, 4] | IC50 ([1]; average IC50, HEK cells, read-out: HEK cell assay) | IC50 ([1]; Homo sapiens, HEK293, read-out: HEK cell assay (uM), average IC50, HEK cells) | IC50 ([2]; BACE 1 FRET assay (uM)) |
| --- | --- | --- | --- | --- | --- |
| CN(C)c1ccc(-c2cc3c(cn2)Oc2ccc(-c4cccnc4F)cc2[C@@]32COC(N)=N2)cc1 [Example 567, (5S)-3-(4-(dimethylamino)phenyl)-7-(2-fluoro-3-pyridinyl)spiro[chromeno[2,3-c]pyridine-5,4′-[1,3]oxazol]-2′-amine] | 0.0746 µM | 0.0046 µM |  |  |  |
| NC1=N[C@@]2(CO1)c1cc(-c3cccnc3F)ccc1Oc1cnc(-c3cncnc3)cc12 [Example 571, (5S)-7-(2-fluoro-3-pyridinyl)-3-(5-pyrimidinyl)spiro[chromeno[2,3-c]pyridine-5,4′-[1,3]oxazol]-2′-amine] | 0.11 µM | 0.0066 µM |  |  |  |
| NC1=N[C@@]2(CO1)c1cc(-c3cccnc3F)ccc1Oc1cnc(-c3ccncc3F)cc12 [Example 572, (5S)-7-(2-fluoro-3-pyridinyl)-3-(3-fluoro-4-pyridinyl)spiro[chromeno[2,3-c]pyridine-5,4′-[1,3]oxazol]-2′-amine] | 0.148 µM | 0.0118 µM |  |  |  |
| NC1=N[C@@]2(CO1)c1cc(-c3ccncc3F)ccc1Oc1cnc(-c3ccnc(F)c3)cc12 [Example 573, (5S)-3-(2-fluoro-4-pyridinyl)-7-(3-fluoro-4-pyridinyl)spiro[chromeno[2,3-c]pyridine-5,4′-[1,3]oxazol]-2′-amine] | 0.801 µM | 0.0708 µM |  |  |  |
| NC1=N[C@@]2(CO1)c1cc(-c3ccncc3F)ccc1Oc1cnc(-c3cccnc3F)cc12 [Example 574, (5S)-3-(2-fluoro-3-pyridinyl)-7-(3-fluoro-4-pyridinyl)spiro[chromeno[2,3-c]pyridine-5,4′-[1,3]oxazol]-2′-amine] | 2.23 µM | 0.856 µM |  |  |  |
| NC1=N[C@@]2(CO1)c1cc(-c3ccncc3F)ccc1Oc1cnc(-c3cncc(F)c3)cc12 [Example 575, (5S)-7-(3-fluoro-4-pyridinyl)-3-(5-fluoro-3-pyridinyl)spiro[chromeno[2,3-c]pyridine-5,4′-[1,3]oxazol]-2′-amine] | 0.971 µM | 0.083 µM |  |  |  |
| NC1=N[C@]2(CS1)c1cc(I)ccc1Oc1ncc(Br)cc12 [Example 579, (5R)-3-bromo-7-iodospiro[chromeno[2,3-b]pyridine-5,4′-[1,3]thiazol]-2′-amine] | 3.18 µM | 1.93 µM |  |  |  |
| NC1=N[C@@]2(CS1)c1cc(-c3cccnc3F)ccc1Oc1cnc(C3=CCOCC3)cc12 [Example 590, (5S)-3-(3,6-dihydro-2H-pyran-4-yl)-7-(2-fluoro-3-pyridinyl)spiro[chromeno[2,3-c]pyridine-5,4′-[1,3]thiazol]-2′-amine] |  |  |  | 0.0093 µM | 0.0007 µM |
| CC1(C#Cc2cc(F)c3c(c2)[C@]2(COC(N)=N2)c2cc(-c4ccc(F)nc4)ccc2O3)COC1 [Example 598] | 0.032 µM | 0.0041 µM |  |  |  |
| NC1=N[C@@]2(CO1)c1cc(-c3cc(F)cnc3F)ccc1Oc1cnc(C3=CCOCC3)cc12 [Example 600, (5S)-7-(2,5-difluoro-3-pyridinyl)-3-(3,6-dihydro-2H-pyran-4-yl)spiro[chromeno[2,3-c]pyridine-5,4′-[1,3]oxazol]-2′-amine] | 0.165 µM | 0.0177 µM |  |  |  |
| NC1=N[C@]2(CS1)c1cc(-c3cccnc3)ccc1Oc1ncc(N3CCOCC3)cc12 [Example 601, (5R)-3-(4-morpholinyl)-7-(3-pyridinyl)spiro[chromeno[2,3-b]pyridine-5,4′-[1,3]thiazol]-2′-amine] | 0.724 µM | 2.29 µM |  |  |  |
| NC1=N[C@@]2(CS1)c1cc(-c3cccnc3F)ccc1Oc1ncc(Br)cc12 [Example 603, (5S)-3-bromo-7-(2-fluoro-3-pyridinyl)spiro[chromeno[2,3-b]pyridine-5,4′-[1,3]thiazol]-2′-amine] | 0.188 µM | 0.0087 µM |  |  |  |
| COc1cc(F)c2c(c1)[C@]1(CSC(N)=N1)c1cc(Br)ccc1O2 [Example 606, (4S)-7′-bromo-4′-fluoro-2′-methoxyspiro[1,3-thiazole-4,9′-xanthen]-2-amine] | 0.279 µM | 0.813 µM |  |  |  |

Second part, led by results:

| IC50 [1, 3] | IC50 [2, 4] | IC50 ([1]; average IC50, HEK cells, read-out: HEK cell assay) | Compound | IC50 ([1]; Homo sapiens, HEK293, read-out: HEK cell assay (uM), average IC50, HEK cells) | IC50 ([2]; BACE 1 FRET assay (uM)) |
| --- | --- | --- | --- | --- | --- |
| 0.0037 µM | 0.002 µM |  | CC1(/C=C/c2cc(F)c3c(c2)[C@]2(COC(N)=N2)c2cc(-c4cccnc4F)ccc2O3)COC1 [Example 561, (4S)-4′-fluoro-7′-(2-fluoro-3-pyridinyl)-2′-((E)-2-(3-methyl-3-oxetanyl)ethenyl)spiro[1,3-oxazole-4,9′-xanthen]-2-amine] |  |  |
| 0.0058 µM | 0.002 µM |  | CC1(COc2cc(F)c3c(c2)[C@]2(COC(N)=N2)c2cc(-c4cccc(C#N)c4)ccc2O3)COC1 [Example 562, 3-((4S)-2-amino-5′-fluoro-7′-((3-methyl-3-oxetanyl)methoxy)spiro[1,3-oxazole-4,9′-xanthen]-2′-yl)benzonitrile] |  |  |
| 0.0124 µM | 0.0013 µM |  | Cn1cc(-c2cc(F)c3c(c2)[C@]2(COC(N)=N2)c2cc(-c4cccc(C#N)c4)ccc2O3)cn1 [Example 563, 3-((4S)-2-amino-5′-fluoro-7′-(1-methyl-1H-pyrazol-4-yl)spiro[1,3-oxazole-4,9′-xanthen]-2′-yl)benzonitrile] |  |  |
| 0.0092 µM | 0.0016 µM |  | N#Cc1cccc(-c2ccc3c(c2)[C@@]2(COC(N)=N2)c2cc(N4CCOCC4)cc(F)c2O3)c1 [Example 564, 3-((4S)-2-amino-5′-fluoro-7′-(4-morpholinyl)spiro[1,3-oxazole-4,9′-xanthen]-2′-yl)benzonitrile] |  |  |
| 0.0295 µM | 0.0023 µM |  | COc1ccc(-c2cc3c(cn2)Oc2ccc(-c4cccnc4F)cc2[C@@]32COC(N)=N2)cc1 [Example 568, (5S)-7-(2-fluoro-3-pyridinyl)-3-(4-methoxyphenyl)spiro[chromeno[2,3-c]pyridine-5,4′-[1,3]oxazol]-2′-amine] |  |  |
| 0.0182 µM | 0.0012 µM |  | NC1=N[C@@]2(CO1)c1cc(-c3cccnc3F)ccc1Oc1cnc(-c3cncc(F)c3)cc12 [Example 569, (5S)-7-(2-fluoro-3-pyridinyl)-3-(5-fluoro-3-pyridinyl)spiro[chromeno[2,3-c]pyridine-5,4′-[1,3]oxazol]-2′-amine] |  |  |
| 0.031 µM | 0.002 µM |  | COc1ncc(-c2cc3c(cn2)Oc2ccc(-c4cccnc4F)cc2[C@@]32COC(N)=N2)cc1F [Example 570, (5S)-3-(5-fluoro-6-methoxy-3-pyridinyl)-7-(2-fluoro-3-pyridinyl)spiro[chromeno[2,3-c]pyridine-5,4′-[1,3]oxazol]-2′-amine] |  |  |
| 0.0164 µM | 0.0017 µM |  | NC1=N[C@]2(CS1)c1cc(-c3cccnc3F)ccc1Oc1ncc(C3=CCOCC3)cc12 [Example 577, (5R)-3-(3,6-dihydro-2H-pyran-4-yl)-7-(2-fluoro-3-pyridinyl)spiro[chromeno[2,3-b]pyridine-5,4′-[1,3]thiazol]-2′-amine] |  |  |
| 0.005 µM | 0.002 µM |  | Cc1ccc(-c2cnc3c(c2)[C@]2(CSC(N)=N2)c2cc(-c4cccnc4F)ccc2O3)cn1 [Example 582, (5S)-7-(2-fluoro-3-pyridinyl)-3-(6-methyl-3-pyridinyl)spiro[chromeno[2,3-b]pyridine-5,4′-[1,3]thiazol]-2′-amine] |  |  |
| 0.0159 µM | 0.002 µM |  | Cn1cc(-c2cnc3c(c2)[C@]2(CSC(N)=N2)c2cc(-c4cccnc4F)ccc2O3)cn1 [Example 584, (5S)-7-(2-fluoro-3-pyridinyl)-3-(1-methyl-1H-pyrazol-4-yl)spiro[chromeno[2,3-b]pyridine-5,4′-[1,3]thiazol]-2′-amine] |  |  |
| 0.0181 µM | 0.0025 µM |  | NC1=N[C@]2(CS1)c1cc(-c3cccnc3)ccc1Oc1ncc(C3=CCOCC3)cc12 [Example 585, (5R)-3-(3,6-dihydro-2H-pyran-4-yl)-7-(3-pyridinyl)spiro[chromeno[2,3-b]pyridine-5,4′-[1,3]thiazol]-2′-amine] |  |  |
| 0.0733 µM | 0.0007 µM |  | NC1=N[C@@]2(CS1)c1cc(-c3cccc(Cl)c3)ccc1Oc1cnc(C3=CCOCC3)cc12 [Example 591, (5S)-7-(3-chlorophenyl)-3-(3,6-dihydro-2H-pyran-4-yl)spiro[chromeno[2,3-c]pyridine-5,4′-[1,3]thiazol]-2′-amine] |  |  |
|  | 0.0009 µM | 0.0213 µM | NC1=N[C@@]2(CS1)c1cc(-c3cncc(F)c3)ccc1Oc1cnc(C3=CCOCC3)cc12 [Example 592, (5S)-3-(3,6-dihydro-2H-pyran-4-yl)-7-(5-fluoro-3-pyridinyl)spiro[chromeno[2,3-c]pyridine-5,4′-[1,3]thiazol]-2′-amine] |  |  |
| 0.011 µM | 0.0011 µM |  | CC1(C#Cc2cc(F)c3c(c2)[C@]2(COC(N)=N2)c2cc(-c4cncc(F)c4)ccc2O3)COC1 [Example 599, (4S)-4′-fluoro-7′-(5-fluoro-3-pyridinyl)-2′-((3-methyl-3-oxetanyl)ethynyl)spiro[1,3-oxazole-4,9′-xanthen]-2-amine] |  |  |
| 0.017 µM | 0.0028 µM |  | NC1=N[C@@]2(CS1)c1cc(-c3cccnc3)ccc1Oc1ncc(N3CCOCC3)cc12 [Example 602, (5S)-3-(4-morpholinyl)-7-(3-pyridinyl)spiro[chromeno[2,3-b]pyridine-5,4′-[1,3]thiazol]-2′-amine] |  |  |
| 0.005 µM | 0.0006 µM |  | CC1(COc2cc(F)c3c(c2)[C@]2(COC(N)=N2)c2cc(-c4cnccc4F)ccc2O3)COC1 [Example 604, (4S)-4′-fluoro-7′-(4-fluoro-3-pyridinyl)-2′-((3-methyl-3-oxetanyl)methoxy)spiro[1,3-oxazole-4,9′-xanthen]-2-amine] |  |  |
| 0.01 µM | 0.0008 µM |  | CC(C)(C#N)COc1cc(F)c2c(c1)[C@]1(COC(N)=N1)c1cc(-c3cnccc3F)ccc1O2 [Example 605, 3-(((4S)-2-amino-4′-fluoro-7′-(4-fluoro-3-pyridinyl)spiro[1,3-oxazole-4,9′-xanthen]-2′-yl)oxy)-2,2-dimethylpropanenitrile] |  |  |
